The results in this text go back to patent US20100105655A1, “NOVEL COMPOUNDS 515” (ASTRAZENECA AB, priority 2008, published 2010).

T1 sequence (P08069 31-1367): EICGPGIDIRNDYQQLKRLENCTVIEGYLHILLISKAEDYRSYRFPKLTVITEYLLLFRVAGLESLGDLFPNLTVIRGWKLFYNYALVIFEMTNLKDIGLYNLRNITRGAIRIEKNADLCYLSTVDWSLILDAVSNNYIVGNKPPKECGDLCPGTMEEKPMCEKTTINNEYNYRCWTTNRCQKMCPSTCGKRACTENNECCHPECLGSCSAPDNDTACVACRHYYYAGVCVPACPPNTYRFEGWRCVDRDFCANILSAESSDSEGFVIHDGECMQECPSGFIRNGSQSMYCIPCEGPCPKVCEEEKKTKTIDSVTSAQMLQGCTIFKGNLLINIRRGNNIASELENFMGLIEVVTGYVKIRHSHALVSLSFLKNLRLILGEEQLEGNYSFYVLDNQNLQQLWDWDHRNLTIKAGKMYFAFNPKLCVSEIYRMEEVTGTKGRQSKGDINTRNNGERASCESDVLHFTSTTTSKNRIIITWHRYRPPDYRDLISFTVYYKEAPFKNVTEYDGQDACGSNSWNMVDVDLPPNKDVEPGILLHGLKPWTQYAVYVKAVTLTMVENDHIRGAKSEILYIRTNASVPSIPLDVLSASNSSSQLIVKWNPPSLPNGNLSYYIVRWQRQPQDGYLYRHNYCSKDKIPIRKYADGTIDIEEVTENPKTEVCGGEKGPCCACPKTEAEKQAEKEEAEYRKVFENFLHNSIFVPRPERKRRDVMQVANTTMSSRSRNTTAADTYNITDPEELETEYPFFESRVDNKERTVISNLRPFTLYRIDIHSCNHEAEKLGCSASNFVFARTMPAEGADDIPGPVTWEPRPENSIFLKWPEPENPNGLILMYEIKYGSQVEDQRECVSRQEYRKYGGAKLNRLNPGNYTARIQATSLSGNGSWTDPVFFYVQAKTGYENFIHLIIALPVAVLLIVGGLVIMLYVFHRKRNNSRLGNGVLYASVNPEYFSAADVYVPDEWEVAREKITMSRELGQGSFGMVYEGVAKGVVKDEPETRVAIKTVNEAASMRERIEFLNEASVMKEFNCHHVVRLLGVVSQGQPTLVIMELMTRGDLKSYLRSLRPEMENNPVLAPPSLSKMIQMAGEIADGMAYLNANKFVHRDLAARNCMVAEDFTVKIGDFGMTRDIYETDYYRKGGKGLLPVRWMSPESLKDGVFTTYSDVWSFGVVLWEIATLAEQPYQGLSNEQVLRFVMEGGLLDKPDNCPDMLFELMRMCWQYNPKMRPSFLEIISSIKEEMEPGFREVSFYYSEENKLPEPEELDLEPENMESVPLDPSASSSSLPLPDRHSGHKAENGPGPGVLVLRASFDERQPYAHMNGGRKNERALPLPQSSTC

The assay has as its target T1, IGFR kinase (Homo sapiens, UniProt P08069).
T1 construct: purchased Millipore
The experiment in a line: Enzyme assay (c), IGFR kinase, Caliper LabChip. The note with it: 30 nM IGFR kinase, 6 uM ATP, 3 uM peptide mix; read-out: IGFR IC50. Type of assay: biochemical.
Regarding `COc1cc(N2CCN(C(C)=O)CC2)ccc1Nc1ncc(C2CC2)c(-c2cnc3c(F)cccn23)n1` [Example 201, 1-[4-[4-[[5-cyclopropyl-4-(8-fluoroimidazo[1,2-a]pyridin-3-yl)pyrimidin-2-yl]amino]-3-methoxy-phenyl]piperazin-1-yl]ethanone], the concentration for half-maximal inhibition (IC50) (usually the concentration at which inhibition is half-maximal) was 88 nM.
Turning to `COc1cc(C2CCCCN2C(C)=O)ccc1Nc1ncc(Cl)c(-c2cnc3ccccn23)n1` (stereo not shown) [Example 3.25, 1-[2-[4-[(5-chloro-4-imidazo[1,2-a]pyridin-3-yl-pyrimidin-2-yl)amino]-3-methoxy-phenyl]-1-piperidyl]ethanone], the IC50 amounted to 10 nM.
With `COc1cc(N2CCN(C(C)=O)CC2)ccc1Nc1ncc(C)c(-c2cnn3ccccc23)n1` [Example 158, 1-[4-[3-methoxy-4-[(5-methyl-4-pyrazolo[1,5-a]pyridin-3-yl-pyrimidin-2-yl)amino]phenyl]piperazin-1-yl]ethanone] the figure was 15 nM.
With `COc1cc(N2CCN(C(=O)C3CCCN3)CC2)ccc1Nc1ncc(Cl)c(-c2cnc3ccccn23)n1` (stereo not shown) [Example 24.3, [4-[4-[(5-chloro-4-imidazo[1,2-a]pyridin-3-ylpyrimidin-2-yl)amino]-3-methoxyphenyl]piperazin-1-yl]-pyrrolidin-2-yl methanone] the figure was 5 nM; with `CNCC(=O)N1CC2CN(c3ccc(Nc4ncc(Cl)c(-c5cnc6c(F)cccn56)n4)c(OC)c3)CC(C1)O2` [Example 208, 1-[3-[4-[[5-chloro-4-(8-fluoroimidazo[1,2-a]pyridin-3-yl)pyrimidin-2-yl]amino]-3-methoxy-phenyl]-9-oxa-3,7-diazabicyclo[3.3.1]nonan-7-yl]-2-(methylamino)ethanone], 26 nM; with `COc1cc(N2CCN(C(=O)[C@H](C)N)CC2)ccc1Nc1ncc(Cl)c(-c2cnc3cc(C)ccn23)n1` [Example 258, (2S)-2-amino-1-[4-[4-[[5-chloro-4-(7-methylimidazo[1,2-a]pyridin-3-yl)pyrimidin-2-yl]amino]-3-methoxy-phenyl]piperazin-1-yl]propan-1-one], 5 nM.
To `COc1cc(N(CCO)CCO)ccc1Nc1ncc(Cl)c(-c2cnc3c(F)cccn23)n1` [Example 223, 2-[4-[[5-chloro-4-(8-fluoroimidazo[1,2-a]pyridin-3-yl)pyrimidin-2-yl]amino]-N-(2-hydroxyethyl)-3-methoxy-anilino]ethanol] belongs 6 nM.
As for `COc1cc(CN2CCN(CCO)CC2)ccc1Nc1ncc(Cl)c(-c2cnc3ccccn23)n1` [Example 21.8, 2-[4-[[4-[(5-chloro-4-imidazo[1,2-a]pyridin-3-yl-pyrimidin-2-yl)amino]-3-methoxy-phenyl]methyl]piperazin-1-yl]ethanol], the half-inhibitory concentration (IC50) was found to be 20 nM.
With `COc1cc(C2CCN(C(=O)[C@H](C)O)CC2)ccc1Nc1ncc(Cl)c(-c2cnc3ccccn23)n1` [Example 28.4, (2S)-1-[4-[4-[(5-chloro-4-imidazo[1,2-a]pyridin-3-yl-pyrimidin-2-yl)amino]-3-methoxy-phenyl]-1-piperidyl]-2-hydroxy-propan-1-one] the figure was 14 nM; with `COc1cc(N2CCN(CCO)CC2)ccc1Nc1ncc(C)c(-c2cnc3ccc(F)cn23)n1` [Example 264, 2-[4-[4-[[4-(6-fluoroimidazo[1,2-a]pyridin-3-yl)-5-methyl-pyrimidin-2-yl]amino]-3-methoxy-phenyl]piperazin-1-yl]ethanol], 12 nM.
To `CCN1CCN(c2ccc(Nc3ncc(F)c(-c4cnc5ccccn45)n3)c(OC)c2)CC1` [Example 120, N-[4-(4-ethylpiperazin-1-yl)-2-methoxyphenyl]-5-fluoro-4-imidazo[1,2-a]pyridin-3-ylpyrimidin-2-amine] belongs 128 nM; to `COc1cc(C2CCN(C(=O)[C@H](C)O)CC2)ccc1Nc1ncc(Cl)c(-c2cnn3ccccc23)n1` [Example 139, (2S)-1-[4-[4-[(5-chloro-4-pyrazolo[1,5-a]pyridin-3-yl-pyrimidin-2-yl)amino]-3-methoxy-phenyl]-1-piperidyl]-2-hydroxy-propan-1-one], 12 nM; to `COc1cc(C2CCN(C(=O)CO)CC2)ccc1Nc1ncc(Cl)c(-c2cnn3ccccc23)n1` [Example 137, 1-[4-[4-[(5-chloro-4-pyrazolo[1,5-a]pyridin-3-yl-pyrimidin-2-yl)amino]-3-methoxy-phenyl]-1-piperidyl]-2-hydroxy-ethanone], 3 nM.
To `COc1cc(N2CCNCC2)ccc1Nc1ncc(Cl)c(-c2cnc3c(F)cc(F)cn23)n1` [Example 265, 5-chloro-4-(6,8-difluoroimidazo[1,2-a]pyridin-3-yl)-N-(2-methoxy-4-piperazin-1-yl-phenyl)pyrimidin-2-amine] belongs 6 nM; to `CNCC(=O)N1CCN(c2ccc(OC)c(Nc3ncc(Cl)c(-c4cnc5ccccn45)n3)c2)CC1` [Example 145, 1-[4-[3-[(5-chloro-4-imidazo[1,2-a]pyridin-3-yl-pyrimidin-2-yl)amino]-4-methoxy-phenyl]piperazin-1-yl]-2-(methylamino)ethanone], 59 nM; to `CC(=O)N1CCN(c2ccc(Nc3ncc(Cl)c(-c4cnc5ccccn45)n3)c(C)c2C)CC1` [Example 3.32, 1-[4-[4-[(5-chloro-4-imidazo[1,2-a]pyridin-3-yl-pyrimidin-2-yl)amino]-2,3-dimethyl-phenyl]piperazin-1-yl]ethanone], 12 nM.
On to `COc1cc(N2CCN(C(=O)C3(O)CC3)CC2)ccc1Nc1ncc(Cl)c(-c2cnc3ccccn23)n1` [Example 22, [4-[4-[(5-chloro-4-imidazo[1,2-a]pyridin-3-yl-pyrimidin-2-yl)amino]-3-methoxy-phenyl]piperazin-1-yl]-(1-hydroxycyclopropyl)methanone], for which the half-inhibitory concentration (IC50) amounted to 15 nM.
With `COc1cc(C(C)C(=O)N2CCN(CCO)CC2)ccc1Nc1ncc(Cl)c(-c2cnc3ccccn23)n1` (stereo not shown) [Example 3.41, 2-[4-[(5-chloro-4-imidazo[1,2-a]pyridin-3-yl-pyrimidin-2-yl)amino]-3-methoxy-phenyl]-1-[4-(2-hydroxyethyl)piperazin-1-yl]propan-1-one] the figure was 16 nM; with `COc1cc(N2CCCOCC2)ccc1Nc1ncc(F)c(-c2cnc3ccccn23)n1` [Example 84, 5-fluoro-4-imidazo[1,2-a]pyridin-3-yl-N-[2-methoxy-4-(1,4-oxazepan-4-yl)phenyl]pyrimidin-2-amine], 179 nM.
With `COc1cc(CC(=O)N2CCNCC2)ccc1Nc1ncc(Cl)c(-c2cnc3ccccn23)n1` [Example 34, 2-[4-[(5-chloro-4-imidazo[1,2-a]pyridin-3-yl-pyrimidin-2-yl)amino]-3-methoxy-phenyl]-1-piperazin-1-yl-ethanone] the figure was 98 nM; with `COc1ccc(N2CCNCC2)cc1Nc1ncc(F)c(-c2cnc3ccccn23)n1` [Example 75, 5-fluoro-4-imidazo[1,2-a]pyridin-3-yl-N-(2-methoxy-5-piperazin-1-yl-phenyl)pyrimidin-2-amine], 172 nM.
To `Cc1ccc(N2CC[C@H](N(C)C)C2)cc1Nc1ncc(Cl)c(-c2cnc3ccccn23)n1` [Example 3.14, 5-chloro-N-[5-[(3S)-3-dimethylaminopyrrolidin-1-yl]-2-methyl-phenyl]-4-imidazo[1,2-a]pyridin-3-yl-pyrimidin-2-amine] belongs 30 nM; to `CC(=O)N1CCN(c2ccc(Nc3ncc(Cl)c(-c4cnc5ccccn45)n3)c(C)c2)CC1` [Example 3.30, 1-[4-[4-[(5-chloro-4-imidazo[1,2-a]pyridin-3-yl-pyrimidin-2-yl)amino]-3-methyl-phenyl]piperazin-1-yl]ethanone], 12 nM.
Turning to `COc1cc(CN(C)CCO)ccc1Nc1ncc(Cl)c(-c2cnc3ccccn23)n1` [Example 21.2, 2-[[4-[(5-chloro-4-imidazo[1,2-a]pyridin-3-yl-pyrimidin-2-yl)amino]-3-methoxy-phenyl]methyl-methyl-amino]ethanol], the half-maximal inhibitory concentration (IC50) came out at 37 nM.
To `COc1cc(N2CCN(C(C)=O)CC2)ccc1Nc1ncc(C)c(-c2cnc3ccccn23)n1` [Example 97, 1-[4-[4-[(4-imidazo[1,2-a]pyridin-3-yl-5-methyl-pyrimidin-2-yl)amino]-3-methoxy-phenyl]piperazin-1-yl]ethanone] belongs 47 nM; to `COc1cc(C(CO)CO)ccc1Nc1ncc(Cl)c(-c2cnn3ccccc23)n1` [Example 148, 2-[4-[(5-chloro-4-pyrazolo[1,5-a]pyridin-3-yl-pyrimidin-2-yl)amino]-3-methoxy-phenyl]propane-1,3-diol], 17 nM; to `COCCN1CCN(c2ccc(Nc3ncc(Cl)c(-c4cnc5ccccn45)n3)c(OC)c2)CC1` [Example 3.46, 5-chloro-4-imidazo[1,2-a]pyridin-3-yl-N-[2-methoxy-4-[4-(2-methoxyethyl)piperazin-1-yl]phenyl]pyrimidin-2-amine], 6 nM.
As for `COc1cc(N2CCN(CC(=O)N(C)CCO)CC2)ccc1Nc1ncc(Cl)c(-c2cnc3ccccn23)n1` [Example 67, 2-[4-[4-[(5-chloro-4-imidazo[1,2-a]pyridin-3-yl-pyrimidin-2-yl)amino]-3-methoxy-phenyl]piperazin-1-yl]-N-(2-hydroxyethyl)-N-methyl-acetamide], the half-inhibitory concentration (IC50) came to 7 nM.
Consider `COc1cc(OC[C@@H]2CCCN2C(C)=O)ccc1Nc1ncc(Cl)c(-c2cnc3ccccn23)n1` [Example 16, 1-[(2S)-2-[[4-[(5-chloro-4-imidazo[1,2-a]pyridin-3-yl-pyrimidin-2-yl)amino]-3-methoxy-phenoxy]methyl]pyrrolidin-1-yl]ethanone], for which the IC50 stood at 32 nM.
With `COc1cc(N2CCN(C[C@@H](C)O)CC2)ccc1Nc1ncc(C)c(-c2cnc3ccccn23)n1` [Example 105, (2R)-1-[4-[4-[(4-imidazo[1,2-a]pyridin-3-yl-5-methyl-pyrimidin-2-yl)amino]-3-methoxy-phenyl]piperazin-1-yl]propan-2-ol] the figure was 26 nM.
With `COc1cc(C2CCN(C(=O)N(C)C)CC2)ccc1Nc1ncc(Cl)c(-c2cnc3ccccn23)n1` [Example 57, 4-[4-[(5-chloro-4-imidazo[1,2-a]pyridin-3-yl-pyrimidin-2-yl)amino]-3-methoxy-phenyl]-N,N-dimethyl-piperidine-1-carboxamide] the figure was 6 nM.
